# Measurements as given in patent publication US11820766B2, “Monoacylglycerol lipase modulators” (Janssen Pharmaceutica NV, priority 2018, dated 2023).
# Target: T1, human MGL from HeLa cells (Homo sapiens, UniProt Q99685)
# T1 construct: combining endogenously expressed MGL from HeLa cells with test compounds; endogenous in cells; host or cells: HeLa cells / cell homogenates
# T1 sequence (Q99685 1-303): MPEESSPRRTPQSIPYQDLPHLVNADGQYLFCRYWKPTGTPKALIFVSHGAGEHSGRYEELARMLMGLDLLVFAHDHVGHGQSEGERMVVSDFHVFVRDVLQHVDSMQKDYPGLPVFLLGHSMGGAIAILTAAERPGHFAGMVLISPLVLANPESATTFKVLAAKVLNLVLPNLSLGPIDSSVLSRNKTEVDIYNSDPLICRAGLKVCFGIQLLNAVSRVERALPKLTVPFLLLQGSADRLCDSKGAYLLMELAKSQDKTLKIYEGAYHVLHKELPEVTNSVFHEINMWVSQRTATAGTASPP
# Assay: In vitro MGL activity assay: [glycerol-1,3-3H]-oleyl glycerol cleavage by MGL from HeLa cells
# Type: biochemical
# Settings: 300 nM [Glycerol-1,3-3H]-oleyl glycerol, one hour incubation
# Text: MGL is the predominant hydrolase in HeLa cells/cell homogenates.
row,IC50 [nM],Compound
1,103,"C[C@H]1c2nn(C)c(-c3cc(F)cc(F)c3)c2CCN1C(=O)c1ccc2ncc(C(F)(F)F)cc2c1 [Example 165, (S)-(3-(3,5-Difluorophenyl)-2,7-dimethyl-2,4,5,7-tetrahydro-6H-pyrazolo[3,4-c]pyridin-6-yl)(3-(trifluoromethyl)quinolin-6-yl)methanone]"
2,11.3,"C[C@H]1c2nn(C)c(-c3cc(F)cc(F)c3)c2CCN1C(=O)c1ccc2ncc(OCCF)cc2c1 [Example 166, (S)-(3-(3,5-Difluorophenyl)-2,7-dimethyl-2,4,5,7-tetrahydro-6H-pyrazolo[3,4-c]pyridin-6-yl)(3-(2-fluoroethoxy)quinolin-6-yl)methanone]"
3,25.1,"CC1c2nn(C)c(-c3cc(F)cc(F)c3)c2CCN1C(=O)c1ccc2nccnc2c1 (centres unmarked) [Example 167, (3-(3,5-Difluorophenyl)-2,7-dimethyl-2,4,5,7-tetrahydro-6H-pyrazolo[3,4-c]pyridin-6-yl)(quinoxalin-6-yl)methanone]"
4,23.2,C[C@H]1c2nn(C)c(-c3cc(F)cc(F)c3)c2CCN1C(=O)c1ccc2ncccc2n1 [Example 170]
5,13,"C[C@H]1c2nn(C)c(-c3cc(F)cc(F)c3)c2CCN1C(=O)c1cc2nccnc2cc1F [Example 171, (S)-(3-(3,5-Difluorophenyl)-2,7-dimethyl-2,4,5,7-tetrahydro-6H-pyrazolo[3,4-c]pyridin-6-yl)(7-fluoroquinoxalin-6-yl)methanone]"
6,4.89,"Cc1nc2ccc(C(=O)N3CCc4c(nn(C)c4-c4cc(Cl)cc(Cl)c4)[C@@H]3C)cc2o1 [Example 172, (S)-(3-(3,5-Dichlorophenyl)-2,7-dimethyl-2,4,5,7-tetrahydro-6H-pyrazolo[3,4-c]pyridin-6-yl)(2-methylbenzo[d]oxazol-6-yl)methanone]"
7,18,"C[C@H]1c2nn(C)c(-c3cc(Cl)cc(Cl)c3)c2CCN1C(=O)c1nn(C)c2ncccc12 [Example 173, (S)-(3-(3,5-Dichlorophenyl)-2,7-dimethyl-2,4,5,7-tetrahydro-6H-pyrazolo[3,4-c]pyridin-6-yl)(1-methyl-1H-pyrazolo[3,4-b]pyridin-3-yl)methanone]"
8,2.62,"C[C@H]1c2nn(C)c(-c3cc(Cl)cc(Cl)c3)c2CCN1C(=O)c1ccc2ncccc2c1 [Example 174, (S)-(3-(3,5-Dichlorophenyl)-2,7-dimethyl-2,4,5,7-tetrahydro-6H-pyrazolo[3,4-c]pyridin-6-yl)(quinolin-6-yl)methanone]"
9,6.24,"C[C@H]1c2nn(C)c(-c3cc(Cl)cc(Cl)c3)c2CCN1C(=O)c1ccc2nccnc2c1 [Example 175, (S)-(3-(3,5-Dichlorophenyl)-2,7-dimethyl-2,4,5,7-tetrahydro-6H-pyrazolo[3,4-c]pyridin-6-yl)(quinoxalin-6-yl)methanone]"
10,8.49,"Cc1cnc2cc(C(=O)N3CCc4c(nn(C)c4-c4cc(Cl)cc(Cl)c4)[C@@H]3C)ccc2n1 [Example 176, (S)-(3-(3,5-Dichlorophenyl)-2,7-dimethyl-2,4,5,7-tetrahydro-6H-pyrazolo[3,4-c]pyridin-6-yl)(2-methylquinoxalin-6-yl)methanone]"
11,15.9,"CC1c2nn(C)c(-c3cc(F)cc(Cl)c3)c2CCN1C(=O)c1ccc2ncccc2c1 (centres unmarked) [Example 177, (3-(3-Chloro-5-fluorophenyl)-2,7-dimethyl-2,4,5,7-tetrahydro-6H-pyrazolo[3,4-c]pyridin-6-yl)(quinolin-6-yl)methanone]"
12,4.16,"C[C@H]1c2nn(C)c(-c3cc(F)cc(Cl)c3)c2CCN1C(=O)c1ccc2ncccc2c1 [Example 178, (S)-(3-(3-Chloro-5-fluorophenyl)-2,7-dimethyl-2,4,5,7-tetrahydro-6H-pyrazolo[3,4-c]pyridin-6-yl)(quinolin-6-yl)methanone]"
13,593,"C[C@@H]1c2nn(C)c(-c3cc(F)cc(Cl)c3)c2CCN1C(=O)c1ccc2ncccc2c1 [Example 179, (R)-(3-(3-Chloro-5-fluorophenyl)-2,7-dimethyl-2,4,5,7-tetrahydro-6H-pyrazolo[3,4-c]pyridin-6-yl)(quinolin-6-yl)methanone]"
14,31.3,"CC1c2nn(C)c(-c3cc(F)cc(Cl)c3)c2CCN1C(=O)c1ccc2nccnc2c1 (centres unmarked) [Example 180, (3-(3-Chloro-5-fluorophenyl)-2,7-dimethyl-2,4,5,7-tetrahydro-6H-pyrazolo[3,4-c]pyridin-6-yl)(quinoxalin-6-yl)methanone]"
15,6.37,"C[C@H]1c2nn(C)c(-c3cc(F)cc(Cl)c3)c2CCN1C(=O)c1ccc2nccnc2c1 [Example 181, (S)-(3-(3-Chloro-5-fluorophenyl)-2,7-dimethyl-2,4,5,7-tetrahydro-6H-pyrazolo[3,4-c]pyridin-6-yl)(quinoxalin-6-yl)methanone]"
16,> 10000,"C[C@@H]1c2nn(C)c(-c3cc(F)cc(Cl)c3)c2CCN1C(=O)c1ccc2nccnc2c1 [Example 182, (R)-(3-(3-Chloro-5-fluorophenyl)-2,7-dimethyl-2,4,5,7-tetrahydro-6H-pyrazolo[3,4-c]pyridin-6-yl)(quinoxalin-6-yl)methanone]"
17,26.9,"Cc1ccc(-c2c3c(nn2C)[C@H](C)N(C(=O)c2ccc4nccnc4c2)CC3)cc1Cl [Example 183, (S)-(3-(3-Chloro-4-methylphenyl)-2,7-dimethyl-2,4,5,7-tetrahydro-6H-pyrazolo[3,4-c]pyridin-6-yl)(quinoxalin-6-yl)methanone]"
18,136,"C[C@H]1c2nn(C)c(-c3cc(F)cc(C(F)(F)F)c3)c2CCN1C(=O)c1ccc2nccnc2c1 [Example 184, (S)-(3-(3-Fluoro-5-(trifluoromethyl)phenyl)-2,7-dimethyl-2,4,5,7-tetrahydro-6H-pyrazolo[3,4-c]pyridin-6-yl)(quinoxalin-6-yl)methanone]"
19,386,"COc1ccc(-c2c3c(nn2C)[C@H](C)N(C(=O)c2ccc4nccnc4c2)CC3)cc1F [Example 185, (S)-(3-(3-Fluoro-4-methoxyphenyl)-2,7-dimethyl-2,4,5,7-tetrahydro-6H-pyrazolo[3,4-c]pyridin-6-yl)(quinoxalin-6-yl)methanone]"
20,46,"COc1cc(F)cc(-c2c3c(nn2C)[C@H](C)N(C(=O)c2ccc4nccnc4c2)CC3)c1 [Example 186, (S)-(3-(3-Fluoro-5-methoxyphenyl)-2,7-dimethyl-2,4,5,7-tetrahydro-6H-pyrazolo[3,4-c]pyridin-6-yl)(quinoxalin-6-yl)methanone]"
21,41.7,"COc1cc(F)cc(-c2c3c(nn2C)[C@H](C)N(C(=O)c2cc4nccnc4cc2F)CC3)c1 [Example 187, (S)-(3-(3-Fluoro-5-methoxyphenyl)-2,7-dimethyl-2,4,5,7-tetrahydro-6H-pyrazolo[3,4-c]pyridin-6-yl)(7-fluoroquinoxalin-6-yl)methanone]"
22,105,"COc1ccc(-c2c3c(nn2C)[C@H](C)N(C(=O)c2ccc4nccnc4c2)CC3)cc1Cl [Example 188, (S)-(3-(3-Chloro-4-methoxyphenyl)-2,7-dimethyl-2,4,5,7-tetrahydro-6H-pyrazolo[3,4-c]pyridin-6-yl)(quinoxalin-6-yl)methanone]"
23,102,"C[C@H]1c2nn(C)c(-c3ccc(OC(F)F)c(F)c3)c2CCN1C(=O)c1ccc2nccnc2c1 [Example 189, (S)-(3-(4-(Difluoromethoxy)-3-fluorophenyl)-2,7-dimethyl-2,4,5,7-tetrahydro-6H-pyrazolo[3,4-c]pyridin-6-yl)(quinoxalin-6-yl)methanone]"
24,133,"Cc1c(F)cc(-c2c3c(nn2C)[C@H](C)N(C(=O)c2ccc4nccnc4c2)CC3)cc1F [Example 190, (S)-(3-(3,5-Difluoro-4-methylphenyl)-2,7-dimethyl-2,4,5,7-tetrahydro-6H-pyrazolo[3,4-c]pyridin-6-yl)(quinoxalin-6-yl)methanone]"
25,2.56,"COc1cccc(C(=O)N2CCc3c(nn(C)c3-c3cc(F)c(F)c(F)c3)[C@@H]2C)c1Cl [Example 191, (S)-(2-Chloro-3-methoxyphenyl)(2,7-dimethyl-3-(3,4,5-trifluorophenyl)-2,4,5,7-tetrahydro-6H-pyrazolo[3,4-c]pyridin-6-yl)methanone]"
26,6.78,"COc1cc(Cl)cc(C(=O)N2CCc3c(nn(C)c3-c3cc(F)c(F)c(F)c3)[C@@H]2C)c1 [Example 192, (S)-(3-Chloro-5-methoxyphenyl)(2,7-dimethyl-3-(3,4,5-trifluorophenyl)-2,4,5,7-tetrahydro-6H-pyrazolo[3,4-c]pyridin-6-yl)methanone]"
27,75.5,"C[C@H]1c2nn(C)c(-c3cc(F)c(F)c(F)c3)c2CCN1C(=O)c1cc(F)ccc1-n1cccn1 [Example 193, (S)-(2,7-Dimethyl-3-(3,4,5-trifluorophenyl)-2,4,5,7-tetrahydro-6H-pyrazolo[3,4-c]pyridin-6-yl)(5-fluoro-2-(1H-pyrazol-1-yl)phenyl)methanone]"
28,14.8,"C[C@H]1c2nn(C)c(-c3cc(F)c(F)c(F)c3)c2CCN1C(=O)c1cccc(-n2cncn2)c1 [Example 194, (S)-(3-(1H-1,2,4-Triazol-1-yl)phenyl)(2,7-dimethyl-3-(3,4,5-trifluorophenyl)-2,4,5,7-tetrahydro-6H-pyrazolo[3,4-c]pyridin-6-yl)methanone]"
29,309,"C[C@H]1c2nn(C)c(-c3cc(F)c(F)c(F)c3)c2CCN1C(=O)c1cccc(F)c1-n1nccn1 [Example 195, (S)-(2,7-Dimethyl-3-(3,4,5-trifluorophenyl)-2,4,5,7-tetrahydro-6H-pyrazolo[3,4-c]pyridin-6-yl)(3-fluoro-2-(2H-1,2,3-triazol-2-yl)phenyl)methanone]"
